In brackets after ≈: the same amount, converted by molar mass.
Legend:
Type in all cases: functional
Staphylococcus aureus [1] = assay: Antimicrobial activity against methicillin-, tetracycline-susceptible and chromosomal mecA deficient Staphylococcus aureus COLnex
Staphylococcus aureus [2] = assay: Antimicrobial activity against beta-lactam-resistant and chromosomal mecA deficient Staphylococcus aureus CRB harboring PBP4 E183A F241R, GdpP N182K and AcrB I960V mutant genes selected after 21 days of serial passage in ceftobiprole; conditions: 504 h
Staphylococcus aureus [3] = assay: Antimicrobial activity against methicillin-resistant and tetracycline-sensitive Staphylococcus aureus COLn
Staphylococcus aureus [4] = assay: Antimicrobial activity against methicillin-resistant Staphylococcus aureus COL
Staphylococcus aureus [5] = assay: Antimicrobial activity against beta-lactam-resistant and chromosomal mecA deficient Staphylococcus aureus CRB harboring PBP4 E183A F241R, GdpP N182K and AcrB I960V mutant genes selected after 21 days of serial passage; conditions: 504 h

Row | Structure (SMILES) | MIC (Staphylococcus aureus [1]) [µg/mL] | MIC (Staphylococcus aureus [2]) [µg/mL] | MIC (Staphylococcus aureus [3]) [µg/mL] | MIC (Staphylococcus aureus [4]) [µg/mL] | MIC (Staphylococcus aureus [5]) [µg/mL]
1 | CC1(C)S[C@@H]2[C@H](NC(=O)[C@H](N)c3ccccc3)C(=O)N2[C@H]1C(=O)O [AMPICILLIN] | < 0.25 | 256 (≈ 733 µM) | – | – | –
2 | Cc1nnc(SCC2=C(C(=O)O)N3C(=O)[C@@H](NC(=O)Cn4cnnn4)[C@H]3SC2)s1 [CEFAZOLIN] | 0.5 (≈ 1.1 µM) | > 256 | 256 (≈ 563 µM) | – | –
3 | CO[C@@]1(NC(=O)Cc2cccs2)C(=O)N2C(C(=O)O)=C(COC(N)=O)CS[C@@H]21 [CEFOXITIN] | 4 (≈ 9.36 µM) | 8 (≈ 18.7 µM) | 256 (≈ 599 µM) | – | –
4 | Nc1nc(/C(=N/O)C(=O)N[C@@H]2C(=O)N3C(C(=O)O)=C(/C=C4\CCN([C@@H]5CCNC5)C4=O)CS[C@H]23)ns1 [CEFTOBIPROLE] | < 0.25 | 128 (≈ 239 µM) | 1 (≈ 1.87 µM) | 1 (≈ 1.87 µM) | 128 (≈ 239 µM)
5 | CO/N=C(\C(=O)N[C@@H]1C(=O)N2C(C(=O)O)=C(CSc3nc(=O)c(O)nn3C)CS[C@H]12)c1csc(N)n1 [CEFTRIAXONE] | 4 (≈ 7.21 µM) | 256 (≈ 462 µM) | > 256 | – | –
6 | CCOc1ccc2ccccc2c1C(=O)N[C@@H]1C(=O)N2[C@@H]1SC(C)(C)[C@@H]2C(=O)O [NAFCILLIN] | 0.5 (≈ 1.21 µM) | 128 (≈ 309 µM) | 256 (≈ 618 µM) | – | –

Source: ChEMBL document CHEMBL1687797, “A mecA-negative strain of methicillin-resistant Staphylococcus aureus with high-level β-lactam resistance contains mutations in three genes” (2010)
